pIC50: −log10 of the molar value. Read-outs that look alike come from different tables or passages of the source. A value given as a limit tells only on which side of the number the result lay.

Data set [1] concerns herpesvirus 5. Briefly: herpesvirus 5 plaque reduction assay in MRC-5 cell monolayers. The format is cell-based, human herpesvirus 5 (HCMV). The method, then:
Compound 1 was isolated from a unique Taiwanese plant (Taiwania cryptomerioides). See, e.g., Chang et al. (2000) Phytochemistry 55: 227. Antiviral drug ganciclovir (i.e., […], GCV) was purchased from Sigma. Both compounds were solubilized in 100% dimethyl sulfoxide (DMSO) at a concentration of 10 mM and stored at −20° C. The compounds were added to cultures such that the resulting concentrations of DMSO never exceed 0.05%, by volume. To reserve the stability of both compounds, Compound 1 and GCV were never stored in cell culture medium and made fresh for each experiment.
Human cell lines, HEL299 (ATCC CCL-137), MRC-5 (ATCC CCL-171), H1299 (CRL-5803), and ARPE19 (CRL-2302) were grown in respective culture media as indicated by the ATCC. All cell lines were screened periodically for mycoplasma contamination. Two HCMV lab strains, AD169 (VR-538) and the Town strain RC256 (the ATCC VR-2356) were purchased from ATCC. All stocks of HCMV were prepared as described in Spaete & Mocarski (1985) J Virol 54(3): 817-24.
The activities of Compound 1 and GCV against herpesvirus 5 were determined by a plaque reduction assay. All herpesvirus 5 plaque reduction assays were performed with monolayer cultures of MRC-5 cells in 6-well cluster dishes (Costar, Cambridge, Mass.). Briefly, one day before the experiment, MRC-5 cells were seeded into 6-well plates at a final concentration of 5×10^6 cells/well. On the day of virus inoculation, cells were treated with each test compound at a desired concentration for one hour before virus inoculation. The serially-diluted virus inoculums containing 10^5 to 10^0 PFU of herpesvirus […] were then added into cell cultures and incubated for additional 2 hours at 37° C. After the incubation, the cells were extensively washed with phosphate buffered saline (PBS) three times and then overlayed with the overlay medium containing 0.3% agar in the absence or presence of the test compounds. The cell cultures were maintained in the 37° C. incubator for two weeks. After removing the overlay agar, the cells were stained with crystal violet.

Data set [2] can be described thus: cytotoxic effect by MTS assay. The format is cell-based. The conditions noted are these: human, read-out: LC50 value (i.e., half lethal concentration). On the procedure: The cytotoxic effect was also determined using the MTS (3-(4,5-dimethylthiazol-2-yl)-5-(3-carboxymethoxyphenyl)-2-(4-sulfophenyl)-2H-tetrazolium, inner salt) assay method described in Goodwin et al. (1995, J. Immunol. Methods. 179: 95).

The subject of data set [3] is herpesvirus 5 ie and pp150 transcripts. As to the kind of experiment: reverse transcription (RT) assay of ie and pp150 transcripts in infected HEL299 cells. It counts as cell-based, herpesvirus 5 lab strain AD169. The conditions noted are these: AD169, MOI 1.0, total RNA day 0-7 post-infection. The method, then:
To determine whether the absence of IE2 protein expression was due to Compound 1-induced abrogation at the transcriptional level, a reverse transcription (RT) assay was performed to measure the IE2 mRNA in the absence or presence of Compound 1. Basically, HEL299 cells were infected with herpesvirus 5 lab strain AD169 at a MOI of 1.0. Total RNAs were then extracted, collected after 2 hours of virus absorption on day 0, 1, 3, 5, and 7 post-infection. The expression of immediate early (ie) and late (pp150) gene products were determined by amplifying segments spanning at a common region shared by ie genes 1 and 2, and the 5′ end of pp150. As an internal control, a segment spanning β-actin was also amplified. […] The expression of pp150 transcripts was also detected after day 3.

In data set [4] the test system is herpesvirus 5 immediate early protein 2 (IE2 protein). Briefly: expression of herpesvirus 5 IE2 and late proteins in infected HEL299 cells. It counts as cell-based. The conditions noted are these: AD169, MOI 1.0, lysates day 0-7 post-infection. On the procedure:
Cell-free virus stock, whose titer had been determined by a plaque reduction assay, was used. One day before the experiment, herpesvirus 5-permissive cells were seeded into 6-well plates at a final concentration of 5×10^6 cells/well. On the day of viral infection, the cells were incubated with or without a test compound (Compound 1 or GCV) for one hour. Subsequently, the cells were washed with PBS twice and serum-free medium were added during virus inoculation. The virus inocula were approximately at a multiplicity of infection (MOI) of 0.1 to 1 PFU/cell depending on which cell line was used. After two hours of incubation with viruses, cells were washed with PBS to remove unbound viruses. The cells were maintained at fresh media with or without test compounds at 37° C. with 5% CO2 incubator. The cell lysate samples were collected on day 0, 1, 3, 5, and 7 after virus infection.
More specifically, HEL299 cells were infected with herpesvirus 5 lab strain AD169 at an MOI of 1.0. Cell lysates were then collected after 2 hours of virus absorption on day 0, 1, 3, 5, and 7 post-infection. IE2 protein in virally infected cells was expressed rapidly on day 1 and increased dramatically on day 5. The expression of herpesvirus 5 late proteins was also detected on days 5 and 7 post-infection.

As to `O=C1OCc2c1cc1ccc3c(c1c2-c1ccc2c(c1)OCO2)OCO3` [Compound 1, 10-benzo[1,3]dioxol-5-yl-9H-furo[3′,4′:6,7]naphtho[1,2-d][1,3]dioxol-7-one], in data set [1] (Human betaherpesvirus 5, MRC5, read-out: IC50 value (i.e., 50% infectious concentration)), the pIC50 was greater than 7.00. Moreover, the “potency relative to GCV” value in data set [1] (IC50 compared with that of GCV) is “ten-fold more potent”. In addition, in data set [1] (LC50 (MTS)/IC50 (plaque reduction)), the “SI (selectivity index=LC50/IC50)” value is given as greater than 160. The “herpesvirus 5 growth in the presence of compound” value in data set [1] (plaque reduction, MRC-5 cells) was “inhibited”. Also, the CC50 in data set [2] is greater than 16 µM. Moreover, the “detection of viral RNA (ie and pp150 transcripts)” value in data set [3] is recorded as “none of these viral RNA was detected”. The “detection of IE2 and late viral proteins in infected cells” value in data set [4] is “none of these viral proteins was detected”.
For the compound `Nc1nc2c(ncn2COC(CO)CO)c(=O)[nH]1` [GCV, 2-amino-1,9-dihydro-9-[(2-hydroxy-1-(hydroxymethyl)ethoxy)methyl]-6H-purin-6-one, reference compound], the pIC50 in data set [1] (Human betaherpesvirus 5, MRC5, plaque reduction, MRC-5 cells, herpesvirus 5, read-out: IC50 value (i.e., 50% infectious concentration)) was 6.00.

The values are drawn from patent US20040044069A1, “Anti-virus compounds” (priority 2002, published 2004).
